For 23 compounds, IC50 results are on record in patent publication US10556905B2, “Processes for preparing a diazabicyclooctane compound” (priority 2012, dated 2020).

Broadly, the IC50 is the concentration at which inhibition is half-maximal.

The target in assay [1] is T1, AmpC (Pseudomonas aeruginosa, UniProt P24735).
T1 construct: AmpC, TEM-1, KPC-2 or OXA-2 domain excluding signal peptide was amplified with PCR; made in house; host or cells: Escherichia coli BL21 (DE3), pET-28b(+)
Briefly: biochemical.

Assay [2] concerns the target T2, TEM-1 (Escherichia coli, UniProt P62593).
T2 construct: AmpC, TEM-1, KPC-2 or OXA-2 domain excluding signal peptide was amplified with PCR; made in house; host or cells: Escherichia coli BL21 (DE3), pET-28b(+)
Briefly: β-Lactamase inhibitory activity (nitrocefin hydrolysis), TEM-1. Format: biochemical. As to conditions: TEM-1 0.1 nM, 100 μM nitrocefin, pre-incubation 30° C. 10 minutes. The protocol: Using Pseudomonas aeruginosa ATCCBAA-47 genome, plasmid pBR322, Klebsiella pneumoniae ATCCBAA-1705, and P. aeruginosa MSC17696 as a template, each DNA for encoding β-lactamase, AmpC, TEM-1, KPC-2 or OXA-2 domain excluding signal peptide was amplified with PCR. Each of the PCR product was incorporated into pET-28b(+)vector (Merck), introduced into Escherichia coli BL21 (DE3) (Merck), and, under induction of 1 mM isopropyl-β-D-(−)-thiogalactopyranoside (Nacalai Tesque), cultured overnight at 20° C. to express AmpC, TEM-1, KPC-2, and OXA-2. After the bacterial cell was collected, AmpC was purified from the cell extract obtained by ultrasonic treatment, using CM Sepharose Fast Flow (GE Healthcare) and HiTrap Heparin HP (GE Healthcare) at 4° C. TEM-1 was purified with HiTrap SPHP (GE Healthcare), HiTrap Q (GE Healthcare) and Mono Q (GE Healthcare), and KPC-2 was purified with HiTrap SPHP. OXA-2 was purified with HiTrap SPHP and HiTrap Heparin HP.
For the measurement of β-lactamase inhibitory activity, 100 μM (final concentration) nitrocefin (Oxoid) was used as a substrate, and 2.5% DMSO, 10 μg/mL bovine serum derived albumin (Sigma-Aldrich) and 50 mM phosphate buffer at pH 7.0 were used as a reaction solution. […] Nitrocefin was added to each well to be mixed therein, followed by incubation at 30° C. for 20 minutes, and Multiscan Ascent (Thermo Fisher Scientific) was used to measure 492 nm wavelength, thereby measuring nitrocefin hydrolytic activity of β-Lactamase, to determine enzyme inhibitory activity. […] As the inhibitory activity strength, less than 0.1 μM, less than 1 μM, less than 3 μM, less than 10 μM, and 10 μM or more were shown with A, B, C, D, and E respectively.

The target of assay [3] is T3, KPC-2 (Klebsiella pneumoniae, UniProt Q9F663).
T3 construct: AmpC, TEM-1, KPC-2 or OXA-2 domain excluding signal peptide was amplified with PCR; made in house; host or cells: Escherichia coli BL21 (DE3), pET-28b(+)
T3 sequence (Q9F663 25-293, looked up): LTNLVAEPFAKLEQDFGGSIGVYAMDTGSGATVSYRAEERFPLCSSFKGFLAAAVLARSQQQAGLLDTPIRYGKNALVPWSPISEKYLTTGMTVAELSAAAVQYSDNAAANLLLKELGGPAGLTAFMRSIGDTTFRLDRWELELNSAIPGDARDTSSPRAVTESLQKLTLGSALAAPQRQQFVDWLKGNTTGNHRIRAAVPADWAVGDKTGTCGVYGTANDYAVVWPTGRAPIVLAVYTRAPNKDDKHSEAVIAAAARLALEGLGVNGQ
Briefly: β-Lactamase inhibitory activity (nitrocefin hydrolysis), KPC-2. Format: biochemical. The settings on record: KPC-2 0.5 nM, 100 μM nitrocefin, pre-incubation 30° C. 10 minutes.

For assay [4], the target named is T4, OXA-2 (Escherichia coli, UniProt P0A1V9).
T4 construct: AmpC, TEM-1, KPC-2 or OXA-2 domain excluding signal peptide was amplified with PCR; made in house; host or cells: Escherichia coli BL21 (DE3), pET-28b(+)
T4 sequence (P0A1V9 22-275): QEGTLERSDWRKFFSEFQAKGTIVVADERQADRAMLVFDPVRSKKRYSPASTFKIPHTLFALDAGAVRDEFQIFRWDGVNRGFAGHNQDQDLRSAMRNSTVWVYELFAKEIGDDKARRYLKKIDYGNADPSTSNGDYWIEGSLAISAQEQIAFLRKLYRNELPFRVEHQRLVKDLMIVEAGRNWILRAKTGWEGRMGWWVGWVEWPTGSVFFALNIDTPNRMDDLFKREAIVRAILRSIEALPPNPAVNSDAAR
Briefly: biochemical. Also noted: species or system P. aeruginosa.

[5] abbreviates: OXA-2 2 nM, 100 μM nitrocefin, pre-incubation 30° C. 10 minutes, read-out: β-Lactamase inhibitory activity OXA-2 (IC50).

Where two headings read alike, the source gives them in different places.

T2 sequence (P62593 24-286 limits assumed): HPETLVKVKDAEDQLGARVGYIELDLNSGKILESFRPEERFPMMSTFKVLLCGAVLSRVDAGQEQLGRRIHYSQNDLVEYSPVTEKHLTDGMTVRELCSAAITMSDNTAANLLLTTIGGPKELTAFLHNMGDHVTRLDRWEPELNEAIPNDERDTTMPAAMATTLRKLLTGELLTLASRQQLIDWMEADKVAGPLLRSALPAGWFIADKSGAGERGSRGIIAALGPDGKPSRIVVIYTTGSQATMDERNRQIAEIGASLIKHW
T1 sequence (P24735 27-397): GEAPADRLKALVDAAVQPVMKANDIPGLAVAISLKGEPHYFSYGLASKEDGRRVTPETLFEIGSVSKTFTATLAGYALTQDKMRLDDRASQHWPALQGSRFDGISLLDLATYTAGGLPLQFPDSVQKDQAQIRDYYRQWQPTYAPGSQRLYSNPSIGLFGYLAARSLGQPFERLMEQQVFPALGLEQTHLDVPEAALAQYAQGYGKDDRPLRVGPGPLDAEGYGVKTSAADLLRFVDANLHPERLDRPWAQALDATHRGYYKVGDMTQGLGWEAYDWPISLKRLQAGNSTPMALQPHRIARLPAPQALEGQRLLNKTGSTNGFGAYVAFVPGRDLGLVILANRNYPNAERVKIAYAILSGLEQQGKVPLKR

As for `CN(NC(=O)[C@@H]1CC[C@@H]2CN1C(=O)N2OS(=O)(=O)O)C(=O)OC(C)(C)C` (racemic) [Example 18, Sodium tert-butyl 1-methyl-2-{[(2SR,5RS)-7-oxo-6-(sulfooxy)-1,6-diazabicyclo[3.2.1]oct-2-yl]carbonyl}hydrazinecarboxylate], the IC50 was 100 to 1000 nM in assay [1], under 100 nM in assay [2], 100 to 1000 nM in assay [3] and 1000 to 3000 nM in assay [4].

As for `CNNC(=O)[C@@H]1CC[C@@H]2CN1C(=O)N2OS(=O)(=O)O` (racemic) [Example 19, (2SR,5RS)—N′-Methyl-7-oxo-6-(sulfooxy)-1,6-diazabicyclo[3.2.1]octane-2-carbohydrazide], the IC50 is 100 to 1000 nM in assay [1], under 100 nM in assay [2] and 100 to 1000 nM in assay [3].

Take `CN(C)NC(=O)[C@@H]1CC[C@@H]2CN1C(=O)N2OS(=O)(=O)O` (racemic) [Example 20, Sodium (2SR,5RS)—N′,N′-dimethyl-7-oxo-6-(sulfooxy)-1,6-diazabicyclo[3.2.1]octane-2-carbohydrazide]: the IC50 in assay [1] is 100 to 1000 nM; in assay [2], 100 to 1000 nM; in assay [3], 1000 to 3000 nM; in assay [4] it was 3000 to 10000 nM.

For the compound `CC(=O)N(C)NC(=O)[C@@H]1CC[C@@H]2CN1C(=O)N2OS(=O)(=O)O` (racemic) [Example 25, Sodium (2SR,5RS)—N′-acetyl-N′-methyl-7-oxo-6-(sulfooxy)-1,6-diazabicyclo[3.2.1]octane-2-carbohydrazide], the IC50 in assay [1] was 100 to 1000 nM; in assay [2], under 100 nM; in assay [3] it was under 100 nM; in assay [4], over 10000 nM.

Regarding `NCC(=O)NNC(=O)[C@@H]1CC[C@@H]2CN1C(=O)N2OS(=O)(=O)O` (racemic) [Example 26, (2SR,5RS)—N′-(Aminoacetyl)-7-oxo-6-(sulfooxy)-1,6-diazabicyclo[3.2.1]octane-2-carbohydrazide], the IC50 in assay [1] was 1000 to 3000 nM; in assay [2] it was 100 to 1000 nM; in assay [3], 1000 to 3000 nM.

Regarding `O=C(NNC(=O)[C@@H]1CC[C@@H]2CN1C(=O)N2OS(=O)(=O)O)c1ccccc1` (racemic) [Example 30, Sodium (2SR,5RS)—N′-benzoyl-7-oxo-6-(sulfooxy)-1,6-diazabicyclo[3.2.1]octane-2-carbohydrazide], the values for the IC50 in assay [1], in assay [2] and in assay [3] were 100 to 1000 nM, under 100 nM and 100 to 1000 nM, respectively.

For the compound `NCc1ccc(C(=O)NNC(=O)[C@@H]2CC[C@@H]3CN2C(=O)N3OS(=O)(=O)O)cc1` (racemic) [Example 32, (2SR,5RS)—N′-(4-(Aminomethyl)benzoyl)-7-oxo-6-(sulfooxy)-1,6-diazabicyclo[3.2.1]octane-2-carbohydrazide], the IC50 was under 100 nM in assay [1], under 100 nM in assay [2], 100 to 1000 nM in assay [3] and 3000 to 10000 nM in assay [4] (setting [5]).

On to `O=C(NN1CCCC1=O)[C@@H]1CC[C@@H]2CN1C(=O)N2OS(=O)(=O)O` (racemic) [Example 33, Sodium (2SR,5RS)-7-oxo-N-(2-oxopyrrolidin-1-yl)-6-(sulfooxy)-1,6-diazabicyclo[3.2.1]octane-2-carboxamide], for which the IC50 was 100 to 1000 nM in assay [1], under 100 nM in assay [2], 100 to 1000 nM in assay [3] and 3000 to 10000 nM in assay [4].

Turning to `O=C(NNC(=O)[C@@H]1CC[C@@H]2CN1C(=O)N2OS(=O)(=O)O)Nc1ccccc1` (racemic) [Example 49, Sodium 2-{[(2SR,5RS)-7-oxo-6-(sulfooxy)-1,6-diazabicyclo[3.2.1]oct-2-yl]carbonyl}-N-phenylhydrazinecarboxamide], the IC50 was 100 to 1000 nM in assay [1], under 100 nM in assay [2], 100 to 1000 nM in assay [3] and 3000 to 10000 nM in assay [4].

On to `CC(C)(C)OC(=O)NNC(=O)[C@@H]1CC[C@@H]2CN1C(=O)N2OS(=O)(=O)O` (racemic) [Example 53, Sodium tert-butyl 2-{[(2SR,5RS)-7-oxo-6-(sulfooxy)-1,6-diazabicyclo[3.2.1]oct-2-yl]carbonyl}hydrazinecarboxylate], for which the results for the IC50 in assay [1], in assay [2] and in assay [3] were 100 to 1000 nM, under 100 nM and 100 to 1000 nM, respectively.

In the case of `O=C(NN1CCOCC1)[C@@H]1CC[C@@H]2CN1C(=O)N2OS(=O)(=O)O` (racemic) [Example 55, Sodium (2SR,5RS)—N-(morpholin-4-yl)-7-oxo-6-(sulfooxy)-1,6-diazabicyclo[3.2.1]octane-2-carboxamide], the IC50 in assay [1] was in the range of 100 to 1000 nM; in assay [2] it was 100 to 1000 nM; in assay [3], 1000 to 3000 nM; in assay [4] it was 3000 to 10000 nM.

With `CCONC(=O)[C@@H]1CC[C@@H]2CN1C(=O)N2OS(=O)(=O)O` (racemic) [Example 57, Sodium (2SR,5RS)—N-ethoxy-7-oxo-6-(sulfooxy)-1,6-diazabicyclo[3.2.1]octane-2-carboxamide], the IC50 in assay [1] was 100 to 1000 nM; in assay [2], under 100 nM; in assay [3] it was 1000 to 3000 nM.

Consider `NNC(=O)[C@@H]1CC[C@@H]2CN1C(=O)N2OS(=O)(=O)O` [Example 17, (2S,5R)-7-Oxo-6-(sulfooxy)-1,6-diazabicyclo[3.2.1]octane-2-carbohydrazide], for which the IC50 was 100 to 1000 nM in assay [1], under 100 nM in assay [2], 100 to 1000 nM in assay [3] and 3000 to 10000 nM in assay [4] (setting [5]).

On to `CC(=O)NNC(=O)[C@@H]1CC[C@@H]2CN1C(=O)N2OS(=O)(=O)O` [Example 21, Sodium (2S,5R)—N′-acetyl-7-oxo-6-(sulfooxy)-1,6-diazabicyclo[3.2.1]octane-2-carbohydrazide], for which the IC50 in assay [1] was 100 to 1000 nM; in assay [2], under 100 nM; in assay [3], 100 to 1000 nM; in assay [4] it was 1000 to 3000 nM.

For `CCC(=O)NNC(=O)[C@@H]1CC[C@@H]2CN1C(=O)N2OS(=O)(=O)O` [Example 22, Sodium (2S,5R)-7-oxo-N′-propanoyl-6-(sulfooxy)-1,6-diazabicyclo[3.2.1]octane-2-carbohydrazide], the IC50 was 100 to 1000 nM in assay [1], under 100 nM in assay [2], 100 to 1000 nM in assay [3] and 3000 to 10000 nM in assay [4].

Consider `CC(C)C(=O)NNC(=O)[C@@H]1CC[C@@H]2CN1C(=O)N2OS(=O)(=O)O` [Example 23, Sodium (2S,5R)—N′-(2-methylpropanoyl)-7-oxo-6-(sulfooxy)-1,6-diazabicyclo[3.2.1]octane-2-carbohydrazide], for which the IC50 is 100 to 1000 nM in assay [1], under 100 nM in assay [2], 100 to 1000 nM in assay [3] and 3000 to 10000 nM in assay [4].

On to `CC(C)(C)C(=O)NNC(=O)[C@@H]1CC[C@@H]2CN1C(=O)N2OS(=O)(=O)O` [Example 24, Sodium (2S,5R)—N′-(2,2-dimethylpropanoyl)-7-oxo-6-(sulfooxy)-1,6-diazabicyclo[3.2.1]octane-2-carbohydrazide], for which the IC50 in assay [1], in assay [2] and in assay [3] was 100 to 1000 nM throughout.

Regarding `O=C([C@@H]1CC[C@@H]2CN1C(=O)N2OS(=O)(=O)O)N1CCCCO1` [Example 71, Sodium (2S,5R)-2-(1,2-oxazinan-2-ylcarbonyl)-6-(sulfooxy)-1,6-diazabicyclo[3.2.1]octane-7-one], the IC50 is 100 to 1000 nM in assay [1], under 100 nM in assay [2] and 100 to 1000 nM in assay [3].

As for `O=C(NOCCN1CCNCC1)[C@@H]1CC[C@@H]2CN1C(=O)N2OS(=O)(=O)O` [Example 73, (2S,5R)-7-Oxo-N-[2-(piperazin-1-yl)ethoxy]-6-(sulfooxy)-1,6-diazabicyclo[3.2.1]octane-2-carboxamide], the values for the IC50 in assay [1], in assay [2] and in assay [3] were under 100 nM, under 100 nM and 100 to 1000 nM, respectively.

Regarding `O=C(NOCCn1ccnc1)[C@@H]1CC[C@@H]2CN1C(=O)N2OS(=O)(=O)O` [Example 86, Sodium (2S,5R)—N-[2-(1H-Imidazol-1-yl)ethoxy]-7-oxo-6-(sulfooxy)-1,6-diazabicyclo[3.2.1]octane-2-carboxamide], the values for the IC50 in assay [1], in assay [2] and in assay [3] were under 100 nM, under 100 nM and 100 to 1000 nM, respectively.

As to `O=C(NC1CCNCC1)[C@@H]1CC[C@@H]2CN1C(=O)N2OS(=O)(=O)O` [MK-7655, reference compound], in assay [4] (setting [5]), the IC50 lay within 100 to 1000 nM.

Turning to `NC(=O)[C@@H]1CC[C@@H]2CN1C(=O)N2OS(=O)(=O)O` [NXL104, reference compound], the IC50 in assay [4] (setting [5]) lay in the range of 100 to 1000 nM.

For the compound `C[C@]1(Cn2ccnn2)[C@H](C(=O)O)N2C(=O)C[C@H]2S1(=O)=O` [TAZ, tazobactam, reference compound], the IC50 is 100 to 1000 nM in assay [3] and under 100 nM in assay [4] (setting [5]).
